Test system: DMM mice (C57BL/6)
Assay: Tactile sensitivity testing (von Frey) in DMM OA mice
Type: in vivo
Conditions: oral administration, 8 weeks, summary over von Frey and open field tests
Method: Mice were acclimated for 30 minutes in individual chambers on top of a wire grid platform prior to von Frey testing. The plantar surface of the hind paw was stimulated with ascending force intensities of von Frey filaments (Stoelting) to determine tactile sensitivity. A positive response was defined as a rapid withdrawal of the hind paw when the stimulus was applied, and the number of positive responses for each stimulus was recorded. Tactile threshold was defined as a withdrawal response in 5 out of 10 trials to a given stimulus intensity (38). This threshold was calculated once per animal.
To determine pain relief, three animal behavior assessments were used: 1) von Frey, which determined sensitivity to mechanical stimuli [OA animals tend to have lower thresholds of pain to mechanical stimuli]; 2) distance traveled—a measure of joint movement [OA animals tend to move a lesser distance compared to non-OA animals]; 3) rearing—a measure of joint function [OA animals tend to rear, or stand up on their hind limbs less than non-OA animals].

| Compound | pain relief of OA-associated pain (overall: mechanical sensitivity, joint movement and function) |
| --- | --- |
| Epigallocatechin-3-gallate [EGCG] | did not result in a statistical improvement in pain relief |
| COc1cc(/C=C/C(=O)CC(=O)/C=C/c2ccc(O)c(OC)c2)ccc1O [Curcumin] | did not result in a statistical improvement in pain relief |
| Cc1ccc(C(C)C)cc1O [Carvacrol] | did not result in a statistical improvement in pain relief |

Test system: DMM mice (C57BL/6)
Assay: Slowing progression of OA in DMM post-traumatic OA mouse model (Safranin O staining, OARSI score)
Type: in vivo
Conditions: oral daily for 8 weeks
From the text: Induction of osteoarthritis in mice. All studies were approved by the Albert Einstein College of Medicine Institutional Animal Care and Use Committee. Destabilization of the medial meniscus (DMM) was established in adult C57BL/6 mice (male, 5-6 months) by surgically transecting the medial meniscotibial ligament (MMTL) in the right hind limb (36). Briefly, the joint capsule immediately medial to the patellar tendon was incised, followed by blunt dissection of the fat pad, to provide visualization of the MMTL of the medial meniscus. The MMTL was transected, leading to DMM. In the sham surgery, the MMTL was visualized but not transected. The joint capsule and skin were closed with suture.
Animals were euthanized, hindlimbs were fixed in formalin, decalcified in formic acid, embedded in paraffin and sectioned for histology and immunohistochemistry. Sections were incubated overnight at 4° C. with antibodies against cleaved aggrecan (NITEGE, Ibex) and cleaved type II collagen (Col2-3/4M, Ibex), MMP-13 (Abcam), and ADAMTS5 (Abcam) followed by incubation with anti-mouse or anti-rabbit secondary antibody (Biocare Medical) and visualization with DAB chromagen (Vector Laboratories). Negative controls were stained with irrelevant isotype-matched antibodies (Biocare Medical). Safranin O-fast green staining was used to visualize proteoglycans in the articular cartilage. Severity of OA was evaluated for each mouse using the Osteoarthritis Research Society International (OARSI) scoring system (34) Immunostaining intensity for type II collagen or aggrecan cleavage epitopes was quantified by determining the “reciprocal intensity” of the stained articular cartilage matrix. Briefly, the light intensity value of random locations within azones from the posterior to anterior direction of the femoral and tibial condyles was measured using the color picker in Adobe Photoshop (37). Percentages of positive MMP-13 and ADAMTS5 chondrocytes were determined by counting the number of immunostained cells and dividing by the total number of chondrocytes visualized by a hematoxylin counterstain (Vector Laboratories).
To determine the efficacy of the C′-CEO formulation in slowing progression of OA in vivo, a well-established post-traumatic mouse model of OA was used. These OA mice were orally administered C′-CEO, individual compounds, or placebo daily. Severity of OA was evaluated 8 weeks after induction of OA, using a well-established and FDA recommended cartilage integrity stain, Safranin O, and a semi-quantitative Osteoarthritis Research Society International (OARSI) scoring system. Furthermore, the efficacy of the C′-CEO formulation was validated by examining the level of breakdown of two major cartilage matrix proteins, type II collagen and aggrecan, as cartilage degradation is a hallmark of OA. It was further examined how the C′-CEO formulation may have such effect by targeting CITED2 by examining CITED2 expression in the articular cartilage of these OA mice.
All studies were approved by the Albert Einstein College of Medicine Institutional Animal Care and Use Committee. Destabilization of the medial meniscus (DMM) was established in adult C57BL/6 mice (male, 5-6 months) by surgically transecting the medial meniscotibial ligament (MMTL) in the right hind limb Immediately after surgery, mice were administered either carvacrol (C′), curcumin (C), EGCG (E), OPC(O), C′-CEO, or vehicle control for 8 weeks. At 8 weeks following surgery, animals were euthanized, the hindlimbs were fixed in formalin, decalcified in formic acid, embedded in paraffin and sectioned for histology. Safranin O, a well-stablished cartilage stain, was used to visualize integrity of the articular cartilage and aggrecans in the articular cartilage. Severity of OA was evaluated using the OARSI scoring system.

| Compound | cartilage damage (fibrillation, erosion, loss of aggrecans) by Safranin O staining |
| --- | --- |
| Epigallocatechin-3-gallate [EGCG] | some reduction in cartilage degradation |
| COc1cc(/C=C/C(=O)CC(=O)/C=C/c2ccc(O)c(OC)c2)ccc1O [Curcumin] | some reduction in cartilage degradation |
| Cc1ccc(C(C)C)cc1O [Carvacrol] | some reduction in cartilage degradation |

Same assay, conditions: oral gavage daily for 8 weeks, Carvacrol 50 mg/kg, Curcumin 50 mg/kg, EGCG 5 mg/kg, OPC 50 mg/kg or combination, score 0 healthy to 6 severe erosion, 8 animals/group

| Compound | mean OARSI score ± standard deviation |
| --- | --- |
| Epigallocatechin-3-gallate [EGCG] | 2.1 ± 0.29 |
| COc1cc(/C=C/C(=O)CC(=O)/C=C/c2ccc(O)c(OC)c2)ccc1O [Curcumin] | 2.4 ± 0.42 |
| Cc1ccc(C(C)C)cc1O [Carvacrol] | 2.9 ± 0.45 |
